This passage reports EC50 results from patent US8563714B2, “Bridged spiro [2.4] heptane derivatives as ALX receptor and/or FPRL2 agonists” (Actelion Pharmaceuticals Ltd., priority 2009, dated 2013).

For assay [1], the target named is T1, human ALX receptor (Homo sapiens, UniProt P25090).
T1 construct: expressed in transfected cells; host or cells: HEK293 (HEK293-hALXR-Gα16)
T1 sequence (P25090 1-351): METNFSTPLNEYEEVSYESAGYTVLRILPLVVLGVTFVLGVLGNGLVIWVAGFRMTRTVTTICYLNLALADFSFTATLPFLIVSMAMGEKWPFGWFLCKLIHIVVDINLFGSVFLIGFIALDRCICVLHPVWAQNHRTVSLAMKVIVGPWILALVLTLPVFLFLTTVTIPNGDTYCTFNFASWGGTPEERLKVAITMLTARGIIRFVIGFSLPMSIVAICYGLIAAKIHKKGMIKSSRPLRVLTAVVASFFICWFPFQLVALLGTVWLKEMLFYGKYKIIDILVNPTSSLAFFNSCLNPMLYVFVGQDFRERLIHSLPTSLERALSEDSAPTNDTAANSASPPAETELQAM
The assay is described as follows: Intracellular calcium measurements (FLIPR), agonistic activity in HEK293-hALXR-Gα16 cells. The conditions noted are these: Fluo-4 calcium FLIPR, normalized to WKYMVm 10 nM. It is filed as cell-based. As for the experimental part:
(§1) The ALX receptor and FPRL2 agonistic activities of the compounds of formula (I) are determined in accordance with the following experimental method.
(§2) Intracellular Calcium Measurements:
Cells expressing recombinant human ALX receptor and the G-protein Gα16 (HEK293-hALXR-Gα16) were grown to 80% confluency in Growing Medium (GM). Cells were detached from culture dishes with a cell dissociation buffer (Invitrogen, 13151-014), and collected by centrifugation at 1,000 rpm at rt for 5 min in Assay Buffer (AB) (equal parts of Hank's BSS (Gibco, 14065-049) and DMEM without Phenol Red (Gibco, 11880-028)). After 60 min incubation at 37° C. under 5% CO2 in AB supplemented with 1 μM Fluo-4 (AM) (Invitrogen, F14202), and 20 mM HEPES (Gibco, 15630-056), the cells were washed and resuspended in AB. They were then seeded onto 384-well FLIPR assay plates (Greiner, 781091) at 50′000 cells in 70 μl per well and sedimented by centrifugation at 1,000 rpm for 1 min. Stock solutions of test compounds were made up at a concentration of 10 mM in DMSO, and serially diluted in AB to concentrations required for activation dose response curves. WKYMVm (Phoenix Peptides) was used as a reference agonist. FLIPR384 or FLIPR Tetra instruments (Molecular Devices) were operated according to the manufacturer's standard instructions, adding 4 μl of test compound dissolved at 10 mM in DMSO and diluted prior to the experiment in assay buffer to obtain the desired final concentration. Changes in fluorescence were monitored before and after the addition of test compounds at lex=488 nm and lem=540 nm. Emission peak values above base level after compounds addition were exported after base line subtraction. Values were normalized to high-level control (WKYMVm compound, 10 nM final concentration) after subtraction of the base line value (AB addition).
On the technique in general: A change in cytosolic calcium serves as a functional read-out for many receptors and channels.

The target of assay [2] is T2, human FPRL2 (Homo sapiens, UniProt P25089).
T2 construct: expressed in transfected cells; host or cells: HEK293 (HEK293-hFPRL2-Gα16)
T2 sequence (P25089 1-353): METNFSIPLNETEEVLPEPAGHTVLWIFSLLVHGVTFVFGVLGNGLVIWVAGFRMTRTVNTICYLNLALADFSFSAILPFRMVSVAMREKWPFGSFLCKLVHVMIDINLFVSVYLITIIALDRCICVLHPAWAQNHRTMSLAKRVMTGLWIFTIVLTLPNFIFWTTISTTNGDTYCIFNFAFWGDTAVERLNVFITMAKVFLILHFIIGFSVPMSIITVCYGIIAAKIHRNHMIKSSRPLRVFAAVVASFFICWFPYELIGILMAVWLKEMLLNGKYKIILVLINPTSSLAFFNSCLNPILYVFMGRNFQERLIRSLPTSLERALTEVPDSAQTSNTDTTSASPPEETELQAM
Description: Intracellular calcium measurements (FLIPR), agonistic activity in HEK293-hFPRL2-Gα16 cells. It is filed as cell-based. The note with it: Fluo-4 calcium FLIPR, normalized to GLY14-Humanin 100 nM. The method, then: as §1, §2
Cells expressing recombinant human FPRL2 and the G-protein Gα16 (HEK293-hFPRL2-Gα16) were grown to 80% confluency in Growing Medium (GM). […] Stock solutions of test compounds were made up at a concentration of 10 mM in DMSO, and serially diluted in AB to concentrations required for activation dose response curves. Gly14-Humanin (Humanin peptide with replacement of Serine by Glycine at position 14, Phoenix Peptides) was used as a reference agonist. FLIPR384 or FLIPR Tetra instruments (Molecular Devices) were operated according to the manufacturer's standard instructions, adding 4 μl of test compound dissolved at 10 mM in DMSO and diluted prior to the experiment in assay buffer to obtain the desired final concentration. Changes in fluorescence were monitored before and after the addition of test compounds at lex=488 nm and lem=540 nm. Emission peak values above base level after compounds addition were exported after base line subtraction. Values were normalized to high-level control (GLY14-Humanin compound, 100 nM final concentration) after subtraction of the base line value (AB addition).

By EC50 is commonly meant the concentration at which the effect is half-maximal. `NC(=O)C(Cc1ccccc1)NC(=O)C1C(C(=O)Nc2ccc(Br)cc2)C2C=CC1C21CC1` (mixture of isomers) [Example 95, (5R*)—N^5-(4-Bromophenyl)-(6R*)—N^6-[(1S)-1-carbamoyl-2-phenyl-ethyl]-(4S*,7R*)-[4,7-ethenylene-spiro[2.4]heptane]-5,6-dicarboxamide]: the EC50 in assay [1] was 0.223 µM; in assay [2], 1.85 µM.
Take `CC(C)(C)OC(=O)N1CCCC(CCNC(=O)C2C(C(=O)Nc3ccc(Br)cc3)C3C=CC2C32CC2)C1` (mixture of isomers) [Example 99, (5R*)—N^5-(4-Bromophenyl)-(6R*)—N^6-(2-(N-tert-butoxycarbonyl-piperidin-3-yl)-ethyl)-(4S*,7R*)-[4,7-ethenylene-spiro[2.4]heptane]-5,6-dicarboxamide]: the EC50 is 0.552 µM in assay [1] and 5.49 µM in assay [2].
For the compound `O=C(NCC1CCCO1)C1C(C(=O)Nc2ccc(Br)cc2)C2CCC1C21CC1` (mixture of isomers) [Example 104, (5R*)—N^5-(4-Bromophenyl)-(6R*)—N^6-(tetrahydrofuran-2-yl-methyl)-(4S*,7R*)-[4,7-ethylene-spiro[2.4]heptane]-5,6-dicarboxamide], the EC50 in assay [1] was found to be 0.0015 µM; in assay [2], 5.25 µM.
As for `CC1CCC(NC(=O)C2C(C(=O)NCCCCN3CCCC3)C3C=CC2C32CC2)CC1` (mixture of isomers) [Example 126, (5R*)—N^5-(4-Methyl-cyclohex-1-yl)-(6R*)—N^6-(4-pyrrolidin-1-yl-butyl)-(4S*,7R*)-[4,7-ethenylene-spiro[2.4]heptane]-5,6-dicarboxamide], the EC50 in assay [1] is 0.071 µM; in assay [2], 0.613 µM.
Take `CC(NC(=O)C1C(C(=O)NCCCCN2CCCC2)C2C=CC1C21CC1)c1ccc(Br)cc1` (mixture of isomers) [Example 132, (5R*)—N^5-(1-(4-Bromophenyl)-ethyl)-(6R*)—N^6-(4-pyrrolidin-1-yl-butyl)-(4S*,7R*)-[4,7-ethenylene-spiro[2.4]heptane]-5,6-dicarboxamide]: the results for the EC50 in assay [1] and in assay [2] were 0.898 µM and 0.079 µM, respectively.
As to `CC1(C(=O)NCC2C(C(=O)Nc3ccc(Br)cc3)C3C=CC2C32CC2)CC1(Cl)Cl` (mixture of isomers) [Example 165, (5R*)—N^5-(4-Bromo-phenyl)-(6R*)-6-{[(2,2-dichloro-1-methyl-cyclopropylcarbonyl)-amino]-methyl}-(4S*,7R*)-[4,7-ethenylene-spiro[2.4]heptane]-5-carboxamide], the EC50 in assay [1] came out at 0.087 µM; in assay [2], 2.6 µM.
`O=C(NC1CCNCC1)[C@H]1[C@H](C(=O)Nc2ccc(Br)cc2)[C@@H]2C=C[C@H]1C21CC1` (racemic) [Example 3, (5R*)—N^5-(4-Bromophenyl)-(6R*)—N^6-(piperidin-4-yl)-(4S*,7R*)-[4,7-ethenylene-spiro[2.4]heptane]-5,6-dicarboxamide]: the values for the EC50 in assay [1] and in assay [2] were 0.0002 µM and 2 µM, respectively.
Turning to `CC(C)CNC(=O)[C@H]1[C@H](C(=O)Nc2ccc(Br)cc2)[C@@H]2C=C[C@H]1C21CC1` (racemic) [Example 4, (5R*)—N^5-(4-Bromophenyl)-(6R*)—N^6-(3-isobutyl)-(4S*,7R*)-[4,7-ethenylene-spiro[2.4]heptane]-5,6-dicarboxamide], the results for the EC50 in assay [1] and in assay [2] were 0.00024 µM and 5.31 µM, respectively.
Consider `NCc1cccc(CNC(=O)[C@H]2[C@H](C(=O)Nc3ccc(Br)cc3)[C@@H]3C=C[C@H]2C32CC2)c1` (racemic) [Example 7, (5R*)—N^5-(4-Bromophenyl)-(6R*)—N^6-((3-aminomethyl-phenyl)-methyl)-(4S*,7R*)-[4,7-ethenylene-spiro[2.4]heptane]-5,6-dicarboxamide], for which the EC50 in assay [1] amounted to 0.00055 µM; in assay [2], 0.413 µM.
As for `O=C(NCC1CCNCC1)[C@H]1[C@H](C(=O)Nc2ccc(Br)cc2)[C@@H]2C=C[C@H]1C21CC1` (racemic) [Example 8, (5R*)—N^5-(4-Bromophenyl)-(6R*)—N^6-(4-piperidinyl-methyl)-(4S*,7R*)-[4,7-ethenylene-spiro[2.4]heptane]-5,6-dicarboxamide], the EC50 in assay [1] stood at 0.00082 µM; in assay [2] it was 2.6 µM.
Consider `CC(C)(CN)CNC(=O)[C@H]1[C@H](C(=O)Nc2ccc(Br)cc2)[C@@H]2C=C[C@H]1C21CC1` (racemic) [Example 10, (5R*)—N^5-(4-Bromophenyl)-(6R*)—N^6-(2,2-dimethyl-3-amino-propyl)-(4S*,7R*)-[4,7-ethenylene-spiro[2.4]heptane]-5,6-dicarboxamide], for which the EC50 in assay [1] amounted to 0.00098 µM; in assay [2] it was 0.726 µM.
As to `CCN(CC)CCCCNC(=O)[C@H]1[C@H](C(=O)Nc2ccc(Br)cc2)[C@@H]2C=C[C@H]1C21CC1` (racemic) [Example 11, (5R*)—N^5-(4-Bromophenyl)-(6R*)—N^6-(4-(N,N-diethyl-amino)-butyl)-(4S*,7R*)-[4,7-ethenylene-spiro[2.4]heptane]-5,6-dicarboxamide], the EC50 in assay [1] was 0.001 µM; in assay [2], 0.329 µM.
With `O=C(NC1CCCC1)[C@H]1[C@H](C(=O)Nc2ccc(Br)cc2)[C@@H]2C=C[C@H]1C21CC1` (racemic) [Example 15, (5R*)—N^5-(4-Bromophenyl)-(6R*)—N^6-(cyclopentyl)-(4S*,7R*)-[4,7-ethenylene-spiro[2.4]heptane]-5,6-dicarboxamide], the EC50 turned out to be 0.0013 µM in assay [1] and 4.4 µM in assay [2].
Regarding `NCCCNC(=O)[C@H]1[C@H](C(=O)Nc2ccc(Br)cc2)[C@@H]2C=C[C@H]1C21CC1` (racemic) [Example 16, (5R*)—N^5-(4-Bromophenyl)-(6R*)—N^6-(3-amino-propyl)-(4S*,7R*)-[4,7-ethenylene-spiro[2.4]heptane]-5,6-dicarboxamide], the EC50 turned out to be 0.0014 µM in assay [1] and 3.92 µM in assay [2].
For `CCOCCCNC(=O)[C@H]1[C@H](C(=O)Nc2ccc(Br)cc2)[C@@H]2C=C[C@H]1C21CC1` (racemic) [Example 17, (5R*)—N^5-(4-Bromophenyl)-(6R*)—N^6-(3-ethoxy-propyl)-(4S*,7R*)-[4,7-ethenylene-spiro[2.4]heptane]-5,6-dicarboxamide], the EC50 in assay [1] came out at 0.0018 µM; in assay [2] it was 2.01 µM.
The corresponding values for `O=C(NCC(F)(F)F)[C@H]1[C@H](C(=O)Nc2ccc(Br)cc2)[C@@H]2C=C[C@H]1C21CC1` (racemic) [Example 19, (5R*)—N^5-(4-Bromophenyl)-(6R*)—N^6-(2,2,2-trifluoro-ethyl)-(4S*,7R*)-[4,7-ethenylene-spiro[2.4]heptane]-5,6-dicarboxamide] are 0.0024 µM and 2.48 µM.
